The test deals with T1, Estrogen Receptor (ERα) in MCF-7 human ductal carcinoma breast cell line (Homo sapiens, UniProt P03372).
T1 construct: endogenous in cells; host or cells: MCF-7
T1 sequence (P03372 1-595): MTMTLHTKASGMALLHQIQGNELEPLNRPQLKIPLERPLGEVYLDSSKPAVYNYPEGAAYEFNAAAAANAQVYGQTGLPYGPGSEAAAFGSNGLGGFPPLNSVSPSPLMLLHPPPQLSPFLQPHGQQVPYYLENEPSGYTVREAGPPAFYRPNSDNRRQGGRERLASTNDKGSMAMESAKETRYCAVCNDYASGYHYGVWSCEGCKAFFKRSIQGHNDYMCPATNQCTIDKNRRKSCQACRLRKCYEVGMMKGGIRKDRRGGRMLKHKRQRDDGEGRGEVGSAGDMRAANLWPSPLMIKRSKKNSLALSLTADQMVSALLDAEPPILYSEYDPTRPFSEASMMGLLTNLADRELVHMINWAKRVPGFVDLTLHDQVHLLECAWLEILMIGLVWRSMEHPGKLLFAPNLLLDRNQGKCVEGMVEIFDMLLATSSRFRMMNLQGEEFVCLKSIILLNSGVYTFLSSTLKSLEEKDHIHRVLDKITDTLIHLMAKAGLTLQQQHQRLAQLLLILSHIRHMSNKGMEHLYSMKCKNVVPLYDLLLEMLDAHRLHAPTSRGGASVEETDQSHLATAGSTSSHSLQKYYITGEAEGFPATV
The test is described as follows: MCF-7 ER degradation assay (cell based immuno-fluorescence). The following applies: MCF-7 cells; for ER degradation ≥ 90% at 0.3 μM: ER degradation by fulvestrant at 0.3 μM is defined as 100%; for DC50: 18-22 hours incubation, 50% reduction of ERα expression, single experiment or average of two or more, read-out: MCF-7 ER degradation IC50. The method, boiled down:
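MCF-7 human ductal carcinoma breast cells were seeded at 3.75×10^4 cells per mL (40 μL per well) in 384 well plates with phenol red free DMEM containing 2 mM L-Glutamine and 5% (v/v) Charcoal/Dextran treated foetal calf serum. After overnight culture, compounds were acoustically dispensed, incubated 18-22 hours, then cells were formaldehyde-fixed and immunostained for ERα.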

On to `Cc1ncsc1-c1ccc(CNC(=O)[C@@H]2C[C@@H](O)CN2C(=O)[C@@H](NC(=O)COCCO[C@@H](C)[C@H](C)OCCOc2cc(F)c([C@@H]3c4[nH]c5ccccc5c4C[C@@H](C)N3CC(C)(C)F)c(F)c2)C(C)(C)C)cc1` [Example 82, (2S,4R)-1-((2S,10S,11S)-2-(tert-butyl)-14-(3,5-difluoro-4-((1R,3R)-2-(2-fluoro-2-methylpropyl)-3-methyl-2,3,4,9-tetrahydro-1H-pyrido[3,4-b]indol-1-yl)phenoxy)-10,11-dimethyl-4-oxo-6,9,12-trioxa-3-azatetradecanoyl)-4-hydroxy-N-(4-(4-methylthiazol-5-yl)benzyl)pyrrolidine-2-carboxamide], for which the “ER degradation ≥ 90% at 0.3 μM” value was “••” and the DC50 worked out at 200 pM.
On the same counts, the results for `Cc1ncsc1-c1ccc(CNC(=O)[C@@H]2C[C@@H](O)CN2C(=O)[C@@H](NC(=O)COc2ccc(OCCNC(=O)/C=C/c3cc(F)c([C@@H]4c5[nH]c6ccccc6c5C[C@@H](C)N4CC(C)(C)F)c(F)c3)cc2)C(C)(C)C)cc1` [Example 61, (2S,4R)-1-((S)-2-(2-(4-(2-((E)-3-(3,5-difluoro-4-((1R,3R)-2-(2-fluoro-2-methylpropyl)-3-methyl-2,3,4,9-tetrahydro-1H-pyrido[3,4-b]indol-1-yl)phenyl)acrylamido)ethoxy)phenoxy)acetamido)-3,3-dimethylbutanoyl)-4-hydroxy-N-(4-(4-methylthiazol-5-yl)benzyl)pyrrolidine-2-carboxamide, Trifluoroacetic Acid] are “••” and 700 pM.
For `Cc1ncsc1-c1ccc(CNC(=O)[C@@H]2C[C@@H](O)CN2C(=O)[C@@H](NC(=O)COCCOCCOCCOCC(=O)Nc2cc(F)c([C@@H]3c4[nH]c5ccccc5c4C[C@@H](C)N3CC(C)(C)F)c(F)c2)C(C)(C)C)cc1` [Example 68, N1-(3,5-difluoro-4-((1R,3R)-2-(2-fluoro-2-methylpropyl)-3-methyl-2,3,4,9-tetrahydro-1H-pyrido[3,4-b]indol-1-yl)phenyl)-N14-((S)-1-((2S,4R)-4-hydroxy-2-((4-(4-methylthiazol-5-yl)benzyl)carbamoyl)pyrrolidin-1-yl)-3,3-dimethyl-1-oxobutan-2-yl)-3,6,9,12-tetraoxatetradecanediamide] the same measures were “••” and 6200 pM.
On the same counts, the results for `Cc1ncsc1-c1ccc(CNC(=O)[C@@H]2C[C@@H](O)CN2C(=O)[C@@H](NC(=O)COCCCCCOc2cc(F)c([C@@H]3c4[nH]c5ccccc5c4C[C@@H](C)N3CC(F)(F)F)c(F)c2)C(C)(C)C)cc1` [Example 96] are “•” and 1300 pM.
As to `Cc1ncsc1-c1ccc(CNC(=O)[C@@H]2C[C@@H](O)CN2C(=O)[C@@H](NC(=O)COCc2ccc(COc3cc(F)c([C@@H]4c5[nH]c6ccccc6c5C[C@@H](C)N4CC(C)(C)F)c(F)c3)nc2)C(C)(C)C)cc1` [Example 85, (2S,4R)-1-((S)-2-(2-((6-((3,5-difluoro-4-((1R,3R)-2-(2-fluoro-2-methylpropyl)-3-methyl-2,3,4,9-tetrahydro-1H-pyrido[3,4-b]indol-1-yl)phenoxy)methyl)pyridin-3-yl)methoxy)acetamido)-3,3-dimethylbutanoyl)-4-hydroxy-N-(4-(4-methylthiazol-5-yl)benzyl)pyrrolidine-2-carboxamide], the “ER degradation ≥ 90% at 0.3 μM” value was “••” and the DC50 turned out to be 600 pM.
For `Cc1ncsc1-c1ccc(CNC(=O)[C@@H]2C[C@@H](O)CN2C(=O)[C@@H](NC(=O)COCCOCCOCC(=O)Nc2ccc([C@@H]3c4[nH]c5ccccc5c4C[C@@H](C)N3CC(C)(C)F)cc2)C(C)(C)C)cc1` [Example 57, (2S,4R)-1-((S)-2-(tert-butyl)-14-((4-((1R,3R)-2-(2-fluoro-2-methylpropyl)-3-methyl-2,3,4,9-tetrahydro-1H-pyrido[3,4-b]indol-1-yl)phenyl)amino)-4,14-dioxo-6,9,12-trioxa-3-azatetradecanoyl)-4-hydroxy-N-(4-(4-methylthiazol-5-yl)benzyl)pyrrolidine-2-carboxamide, Trifluoroacetic Acid] the same measures were “•” and 900 pM.
On the same counts, the results for `Cc1ncsc1-c1ccc(CNC(=O)[C@@H]2C[C@@H](O)CN2C(=O)[C@@H](NC(=O)COCCCCOCCCOc2cc(F)c([C@@H]3c4[nH]c5ccccc5c4C[C@@H](C)N3CC(C)(C)F)c(F)c2)C(C)(C)C)cc1` [Example 93] are “•” and 900 pM.
For `Cc1ncsc1-c1ccc(CNC(=O)[C@@H]2C[C@@H](O)CN2C(=O)[C@@H](NC(=O)COCc2ccc(OCCOc3cc(F)c([C@@H]4c5[nH]c6ccccc6c5C[C@@H](C)N4CC(C)(C)F)c(F)c3)cc2)C(C)(C)C)cc1` [Example 4, (2S,4R)-1-((S)-2-(2-((4-(2-(3,5-Difluoro-4-((1R,3R)-2-(2-fluoro-2-methylpropyl)-3-methyl-2,3,4,9-tetrahydro-1H-pyrido[3,4-b]indol-1-yl)phenoxy)ethoxy)benzyl)oxy)acetamido)-3,3-dimethylbutanoyl)-4-hydroxy-N-(4-(4-methylthiazol-5-yl)benzyl)pyrrolidine-2-carboxamide] the same measures were “•” and 2100 pM.
Turning to `Cc1ncsc1-c1ccc(CNC(=O)[C@@H]2C[C@@H](O)CN2C(=O)[C@@H](NC(=O)COCCOCCOCCOc2cc(F)c([C@@H]3c4[nH]c5ccccc5c4C[C@@H](C)N3CC3(F)CC3)c(F)c2)C(C)(C)C)cc1` [Example 77, (2S,4R)-1-((S)-2-(tert-Butyl)-14-(3,5-difluoro-4-((1R,3R)-2-((1-fluorocyclopropyl)methyl)-3-methyl-2,3,4,9-tetrahydro-1H-pyrido[3,4-b]indol-1-yl)phenoxy)-4-oxo-6,9,12-trioxa-3-azatetradecanoyl)-4-hydroxy-N-(4-(4-methylthiazol-5-yl)benzyl)pyrrolidine-2-carboxamide], the “ER degradation ≥ 90% at 0.3 μM” value is reported as “••” and the DC50 worked out at 1000 pM.
For `Cc1ncsc1-c1ccc(CNC(=O)[C@@H]2C[C@@H](O)CN2C(=O)[C@@H](NC(=O)c2ccc(N3CCN(CCNC(=O)/C=C/c4cc(F)c([C@@H]5c6[nH]c7ccccc7c6C[C@@H](C)N5CC(C)(C)F)c(F)c4)CC3)cc2)C(C)(C)C)cc1` [Example 67, (2S,4R)-1-((S)-2-(4-(4-(2-((E)-3-(3,5-difluoro-4-((1R,3R)-2-(2-fluoro-2-methylpropyl)-3-methyl-2,3,4,9-tetrahydro-1H-pyrido[3,4-b]indol-1-yl)phenyl)acrylamido)ethyl)piperazin-1-yl)benzamido)-3,3-dimethylbutanoyl)-4-hydroxy-N-(4-(4-methylthiazol-5-yl)benzyl)pyrrolidine-2-carboxamide, Trifluoroacetic Acid] the same measures were “•” and 4500 pM.
For `Cc1ncsc1-c1ccc(CNC(=O)[C@@H]2C[C@@H](O)CN2C(=O)[C@@H](NC(=O)COCCCOCCOc2cc(F)c([C@@H]3c4[nH]c5ccccc5c4C[C@@H](C)N3CC(F)(F)F)c(F)c2)C(C)(C)C)cc1` [Example 94, (2S,4R)-1-((S)-2-(2-(3-(2-(3,5-Difluoro-4-((1R,3R)-3-methyl-2-(2,2,2-trifluoroethyl)-2,3,4,9-tetrahydro-1H-pyrido[3,4-b]indol-1-yl)phenoxy)ethoxy)propoxy)acetamido)-3,3-dimethylbutanoyl)-4-hydroxy-N-(4-(4-methylthiazol-5-yl)benzyl)pyrrolidine-2-carboxamide] the same measures were “•” and 600 pM.
Regarding `Cc1ncsc1-c1ccc(CNC(=O)[C@@H]2C[C@@H](O)CN2C(=O)[C@@H](NC(=O)CCCCNC(=O)/C=C/c2cc(F)c([C@@H]3c4[nH]c5ccccc5c4C[C@@H](C)N3CC(C)(C)F)c(F)c2)C(C)(C)C)cc1` [Example 60, (2S,4R)-1-((S)-2-(5-((E)-3-(3,5-difluoro-4-((1R,3R)-2-(2-fluoro-2-methylpropyl)-3-methyl-2,3,4,9-tetrahydro-1H-pyrido[3,4-b]indol-1-yl)phenyl)acrylamido)pentanamido)-3,3-dimethylbutanoyl)-4-hydroxy-N-(4-(4-methylthiazol-5-yl)benzyl)pyrrolidine-2-carboxamide, Trifluoroacetic Acid], the “ER degradation ≥ 90% at 0.3 μM” value is “•” and the DC50 came to 500 pM.

The record behind these values is US10519152B2, “Compounds and their use in treating cancer” (AstraZeneca AB, priority 2017, dated 2019).
